Measured values from US11998481B2, “Methods and compositions for iontophoretic drug delivery to the eye” (University of Florida Research Foundation, Inc., priority 2018, dated 2024).

Experiments:
Type in all cases: in vitro ADME, rabbit
[1] = Ex vivo iontophoretic delivery of fluorescein to the posterior eye segment, quantified in the vitreous by fluorometer; conditions: for Flux (time averaged): calculated from final concentration in the vitreous; for Concentration in Vitreous: lens loaded with 0.01 mg/mL fluorescein in HEPES; for electrophoretic velocity from the data of Table 3: order of magnitude
Description: (§1) Materials: Mature cadaver rabbit eyes were purchased from Pel-Freez Biologicals (Rogers, AR). The Nile Blue A dye (75% dye content) and Fluorescein were purchased from Sigma-Aldrich (St. Louis, MO). Electrode materials were made 3D printed with conductive PLA filament (Proto Pasta, Vancouver, WA). Cadaver rabbit eyes were fixed in Margo solution containing paraformaldehyde and glutaraldehyde purchased from Fisher Scientific (Hampton, NH). Soaking agents for lenses included phosphate buffered saline (PBS) or a HEPES solution purchased from Fisher Scientific (Hampton, NH). Commercial contact lenses Acuvue Oasys (14 mm diameter, 8.4 mm base curve, 0.0 power) were used in the study.
(§2) Lens Preparation: Contact lenses were loaded by soaking in a 1 mg/mL Nile Blue solution in PBS or in a 0.01 mg/mL fluorescein solution in HEPES overnight. Lenses were loaded overnight in an enclosed space to prevent photobleaching of any species. […] Both species have low molecular weights and therefore have rapid uptakes into the lenses.
(§3) Application of Electric Field: Loaded contact lenses were placed at the periphery of the cornea, on the sclera, and the two electrodes were placed over the lenses. Electrodes were attached to a power source that was set to the desired current (FIG. 8). A syringe pump was configured to gently apply a drop of PBS (≈30 μL) every 30 seconds on to the cornea and would flow to the lenses, providing a thin film to keep them hydrated. The application of PBS also served as an approximate mimic of the in vivo tear film. The submersion of the lens was also crucial to ensure that if any bubbling from electrochemically generated gases were to occur, it would be easily visible. The field was applied for the desired duration and then the power source and lenses were removed. Experiments were conducted with the lenses soaked in PBS for the anode component and HEPES for the cathode. The Nile Blue and fluorescein experiments were each conducted with three different combinations of time and current.
Quantification of Fluorescein Delivery: Delivery of fluorescein to the posterior eye segment was conducted four times for each variation of time and current. After completion, eyes were submerged in PBS for 1 hour and then refrozen. Once the eyes had completely solidified, the vitreous was removed by cutting away the rest of the eye. All samples of same time and current were combined and thawed. After thawing was complete, the vitreous was put through a 0.22 μm filter to ensure no excessive tissue was present in the system. Relative fluorescent intensity of each sample was found using a Quantech fluorometer and the corresponding concentrations of fluorescein was found through a calibration curve.
Efficient transport of fluorescein to the vitreous: The fluorescein was loaded into lenses in a HEPES solution, which alleviated the damage done to the eye during the generation of caustic species from the electrochemical reactions. In order to quantify the delivery of fluorescein to the posterior eye segment, experiments were conducted at three different combinations or time and current and were compared to a control. The electric fields chosen were 0.25 mA (high current) and 0.125 mA (low current) for either 1 hour (short time) or 2 hours (long time). After the application of the electric field to the sclera, the vitreous was harvested and fluorescence was quantified using a fluorometer. The concentrations of fluorescein were found using a calibration curve for the relative fluorescence (Table 3). Additionally in FIGS. 11A-11B, the delivery and localization of fluorescein can be seen in the posterior eye segment. Fluorescence was produced using a UV light source and observed thorough an orange filter. The regions near the cathode component show localizations of fluorescein at the exterior and interior surfaces. The final concentration in the vitreous was also used to calculate the time averaged flux of the fluorescein and the electrophoretic mobility. […]

[2] = Ex vivo iontophoretic delivery of Nile Blue A dye through the cornea from a drug loaded contact lens (camera and confocal imaging)
Description: Materials: Mature cadaver rabbit eyes were purchased from Pel-Freez Biologicals (Rogers, AR). The Nile Blue A dye was purchased from Sigma-Aldrich (St. Louis, MO) with a 75% dye content. Electrode materials were either made from generic lead-free, silver bearing solder or was 3D printed with conductive PLA filament (Proto Pasta, Vancouver, WA). Cadaver rabbit eyes were fixed in Margo solution containing paraformaldehyde and glutaraldehyde purchased from Fisher Scientific (Hampton, NH). Soaking agents for lenses included phosphate buffered saline (PBS), 1 M HEPES, a HEPES buffer solution containing sodium chloride, calcium chloride, magnesium chloride, and potassium phosphate were all purchased from Fisher Scientific (Hampton, NH). Commercial contact lenses Acuvue Oasys (14 mm diameter, 8.4 mm base curve, 0.0 power) were used in the study.
Lens Preparation: Contact lenses were loaded by soaking in a Nile Blue A dye solution (1 mg/mL) in DI water for two days. To investigate the effect of buffer, lenses were soaked in either pure HEPES or HEPES buffer for 10 minutes prior to placement on the cadaver eyes. The molecular weight of HEPES is 238 allowing rapid uptake by the contact lenses. […]
In order to quantify drug delivery, diffusion efficacy was measured by simultaneous comparison of four separate eyes, each corresponding to a different condition. […]

[3] = Ex vivo iontophoretic delivery of Nile Blue to the posterior eye segment (confocal microscopy)
Description: as §1, §2
as §3, with “current. […]” for “current.”

Row | Compound | Flux (time averaged) ([1]; 1 hr 0.125 mA) | Concentration in Vitreous ([1]; 1 hr 0.125 mA) [ng/mL] | Flux (time averaged) ([1]; 1 hr 0.250 mA) | Concentration in Vitreous ([1]; 1 hr 0.250 mA) [ng/mL] | Flux (time averaged) ([1]; 2 hr 0.125 mA) | Concentration in Vitreous ([1]; 2 hr 0.125 mA) [ng/mL] | electrophoretic velocity from the data of Table 3 ([1]; high current (0.25 mA) experiments) [μm/s] | electrophoretic velocity from the data of Table 3 ([1]; low current (0.125 mA) experiments) [μm/s] | Nile Blue A dye present throughout the cornea (confocal) ([2]; diffusion only, no electric field, from contact lens or standing solution, after 1 hr) | Nile Blue A dye delivered to the cornea (ROI analysis) ([2]; lenses loaded in DI water, all current and time conditions (0.25 or 0.125 mA, 30 or 60 min)) | distribution of Nile Blue A dye across sclera, choroid, and retina ([3]; all applied currents and times) | damage to the posterior eye segment (confocal imaging) ([3]; hybrid lenses: PBS at anode, HEPES at cathode) | transport of Nile Blue A dye across sclera, choroid, and retina (confocal) ([3]; low current and short time duration)
1 | O=C1OC2(c3ccc(O)cc3Oc3cc(O)ccc32)c2ccccc21 [Fluorescein] | 7.18 kg/m^2s [×10^7] | 33.8 | 14.93 kg/m^2s [×10^7] | 70.4 | 6.46 kg/m^2s [×10^7] | 60.9 | ~2.6 | ~1.3 | – | – | – | – | –
2 | CC[N+](CC)=c1ccc2nc3c(cc(N)c4ccccc43)oc-2c1 [Nile Blue A dye] | – | – | – | – | – | – | – | – | very minor amounts | significant quantities | uniform | no apparent damage | sufficient transport
